According to patent US12180187B2, “1-phenyl-5-azinylpyrazolyl-3-oxyalkyl acids and their use for controlling unwanted plant growth” (BAYER AKTIENGESELLSCHAFT, priority 2019, dated 2024):

Legend:
[1] = system: POLCO; assay: Post-emergence action at 320 g/ha against POLCO; type: in vivo, Fallopia convolvulus (Polygonum convolvulus); conditions: visual rating about 3 weeks after treatment vs untreated controls
Excerpt: (§1) Accordingly, the compounds of the invention have good herbicidal action against a broad spectrum of weed grasses and broad-leaved weeds and are therefore suitable for controlling unwanted vegetation by the post-emergence method. • b) Seeds of monocotyledonous and dicotyledonous weeds and crop plants are placed in sandy loam in plastic or organic planting pots, covered with soil and cultivated in a greenhouse under controlled growth conditions. 2 to 3 weeks after sowing, the test plants are treated at the one-leaf stage. The compounds of the invention, formulated in the form of wettable powders (WP) or as emulsion concentrates (EC), are then sprayed onto the green parts of the plants as aqueous suspension or emulsion with addition of 0.5% additive at a water application rate of 600 l/ha (converted). After the test plants have been kept in the greenhouse under optimum growth conditions for about 3 weeks, the activity of the preparations is rated visually in comparison to untreated controls. For example, 100% activity=the plants have died, 0% activity=like control plants. Tables 39 to 49 below show the effects of selected compounds of the general formula (I) according to Tables 1 and 2 on various harmful plants and at an application rate corresponding to 320 g/ha, which were obtained by the experimental procedure mentioned above.

[2] = system: AMARE; assay: Pre-emergence action at 320 g/ha against AMARE; type: in vivo, Amaranthus retroflexus; conditions: visual scoring after about 3 weeks vs untreated controls
Procedure, shortened: (§2)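 Sow seeds, cover with soil, spray soil surface (WP/EC, 0.5% additive, 600 l/ha water), hold in greenhouse ~3 wk, then rate % activity visually against untreated controls.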

[3] = system: PHBPU; assay: Post-emergence action at 320 g/ha against PHBPU; type: in vivo; conditions: visual rating about 3 weeks after treatment vs untreated controls
Excerpt: as §1

[4] = system: ABUTH; assay: Post-emergence action at 320 g/ha against ABUTH; type: in vivo, Abutilon theophrasti; conditions: visual rating about 3 weeks after treatment vs untreated controls
Excerpt: as §1

[5] = system: SETVI; assay: Pre-emergence action at 320 g/ha against SETVI; type: in vivo, Setaria viridis; conditions: visual scoring after about 3 weeks vs untreated controls
Procedure, shortened: as §2

[6] = system: DIGSA; assay: Post-emergence action at 320 g/ha against DIGSA; type: in vivo, Digitaria sanguinalis; conditions: dosage 320 g/ha, visual rating about 3 weeks after treatment vs untreated controls (100% = plants died)
Excerpt: as §1

[7] = system: DIGSA; assay: Pre-emergence action at 320 g/ha against DIGSA; type: in vivo, Digitaria sanguinalis; conditions: visual scoring after about 3 weeks vs untreated controls
Procedure, shortened: as §2

[8] = system: STEME; assay: Pre-emergence action at 320 g/ha against STEME; type: in vivo, Stellaria media; conditions: greenhouse, scored visually after about 3 weeks vs untreated controls, 100% = plants have died, 0% = like control plants
Excerpt: (§3) b) Seeds of monocotyledonous and dicotyledonous weed plants and crop plants are placed in plastic or organic planting pots and covered with soil. The compounds of the invention, formulated in the form of wettable powders (WP) or as emulsion concentrates (EC), are then applied onto the surface of the covering soil as aqueous suspension or emulsion with addition of 0.5% additive at a water application rate of 600 l/ha (converted). After the treatment, the pots are placed in a greenhouse and kept under good growth conditions for the trial plants. After about 3 weeks, the effect of the preparations is scored visually in comparison with untreated controls as percentages. For example, 100% activity=the plants have died, 0% activity=like control plants. Tables 13 to 26 below show the effects of selected compounds of the general formula (I) on various harmful plants and at an application rate corresponding to 320 g/ha, which were obtained by the experimental procedure mentioned above.

[9] = system: ECHGC; assay: Pre-emergence action at 320 g/ha against ECHGC; type: in vivo, Echinochloa crus-galli; conditions: visual scoring after about 3 weeks vs untreated controls
Procedure, shortened: as §2

[10] = system: MATIN; assay: Pre-emergence action at 320 g/ha against MATIN; type: in vivo, Tripleurospermum inodorum (Matricaria inodora); conditions: visual scoring after about 3 weeks vs untreated controls
Procedure, shortened: as §2

[11] = system: LOLRI; assay: Pre-emergence action at 320 g/ha against LOLRI; type: in vivo, Lolium rigidum; conditions: visual scoring after about 3 weeks vs untreated controls
Procedure, shortened: as §2

[12] = system: POLCO; assay: Pre-emergence action at 320 g/ha against POLCO; type: in vivo, Fallopia convolvulus (Polygonum convolvulus); conditions: visual scoring after about 3 weeks vs untreated controls
Procedure, shortened: as §2

[13] = system: AVEFA; assay: Pre-emergence action at 320 g/ha against AVEFA; type: in vivo; conditions: visual scoring after about 3 weeks vs untreated controls
Procedure, shortened: as §2

[14] = system: HORMU; assay: Post-emergence action at 320 g/ha against HORMU; type: in vivo, Hordeum murinum; conditions: visual rating about 3 weeks after treatment vs untreated controls
Excerpt: as §1

[15] = system: VIOTR; assay: Pre-emergence action at 320 g/ha against VIOTR; type: in vivo, Viola tricolor; conditions: dosage 320 g/ha
Procedure, shortened: as §2

[16] = system: AVEFA; assay: Post-emergence action at 320 g/ha against AVEFA; type: in vivo; conditions: visual rating about 3 weeks after treatment vs untreated controls
Procedure, shortened: (§4)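 Activity is a visual rating against untreated controls, with 0% like control and 100% dead plants, made about 3 weeks after treatment. Plants grown in sandy loam in the greenhouse received a post-emergence spray at the one-leaf stage of 320 g/ha, formulated as WP or EC with 0.5% additive in 600 l/ha water.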

[17] = system: ALOMY; assay: Pre-emergence action at 320 g/ha against ALOMY; type: in vivo, Alopecurus myosuroides; conditions: scored visually after about 3 weeks vs untreated controls (100% = plants have died)
Procedure, shortened: as §2

[18] = system: PHBPU; assay: Pre-emergence action at 320 g/ha against PHBPU; type: in vivo; conditions: visual scoring after about 3 weeks vs untreated controls
Procedure, shortened: as §2

[19] = system: HORMU; assay: Pre-emergence action at 320 g/ha against HORMU; type: in vivo, Hordeum murinum; conditions: greenhouse, scored visually after about 3 weeks vs untreated controls, 100% = plants have died, 0% = like control plants
Excerpt: as §3

[20] = system: VIOTR; assay: Post-emergence action at 320 g/ha against VIOTR; type: in vivo, Viola tricolor; conditions: visual rating about 3 weeks after treatment vs untreated controls
Excerpt: as §1

[21] = system: ECHCG; assay: Post-emergence action at 320 g/ha against ECHCG; type: in vivo, Echinochloa crus-galli; conditions: dosage 320 g/ha, visual rating about 3 weeks after treatment vs untreated controls (100% = plants died)
Excerpt: as §1

[22] = system: SETVI; assay: Post-emergence action at 320 g/ha against SETVI; type: in vivo, Setaria viridis; conditions: visual rating about 3 weeks after treatment vs untreated controls
Excerpt: as §1

[23] = system: VERPE; assay: Pre-emergence action at 320 g/ha against VERPE; type: in vivo, Veronica persica; conditions: visual scoring after about 3 weeks vs untreated controls
Procedure, shortened: as §2

[24] = system: ALOMY; assay: Post-emergence action against ALOMY, 320 g/ha; type: in vivo, Alopecurus myosuroides; conditions: dosage 320 g/ha, visual rating about 3 weeks after treatment vs untreated controls (100% = plants died)
Procedure, shortened: as §4

CC(C)OC(=O)COc1nn(-c2ccccc2F)c(-c2ccc(F)nc2)c1Br [VII-005]
90%: Post-emergence action against PHBPU in % [3] | Post-emergence action at 320 g/ha against DIGSA in % [6] | Pre-emergence action at 320 g/ha against STEME in % [8] | Pre-emergence action against AVEFA in % [13] | Post-emergence action against HORMU in % [14] | Post-emergence action at 320 g/ha against ECHCG in % [21]
100%: Pre-emergence action against AMARE in % [2] | Pre-emergence action against SETVI in % [5] | Pre-emergence action against DIGSA in % [7] | Pre-emergence action against ECHGC in % [9] | Pre-emergence action against MATIN in % [10] | Pre-emergence action against LOLRI in % [11] | Pre-emergence action against POLCO in % [12] | Pre-emergence action against VIOTR in % [15] | Post-emergence action against AVEFA in % [16] | Pre-emergence action at 320 g/ha against ALOMY in % [17] | Pre-emergence action at 320 g/ha against HORMU in % [19] | Post-emergence action against VIOTR in % [20] | Pre-emergence action against VERPE in % [23] | Post-emergence action against ALOMY [24]
80%: Post-emergence action against POLCO in % [1] | Post-emergence action against ABUTH in % [4] | Pre-emergence action against PHBPU in % [18] | Post-emergence action against SETVI in % [22]
